4 compounds from publication PMC5750217 (Nature Communications, 2018) can be followed below.

As a reminder, the EC50 is the midpoint of the concentration-response curve. Read a high EC50 as a less potent agent. In general, Kd refers to the concentration at which binding is half-saturated. Read a high Kd as a looser complex.

Experiment [1] addresses T1, A2-S481T/C482T (mutant ASCT2) (Homo sapiens, UniProt Q15758, C467T/S466T).
T1 construct: expressed in transfected cells; host or cells: Xenopus laevis oocytes (cRNA injection)
T1 sequence (Q15758 1-541 S466T/C467T): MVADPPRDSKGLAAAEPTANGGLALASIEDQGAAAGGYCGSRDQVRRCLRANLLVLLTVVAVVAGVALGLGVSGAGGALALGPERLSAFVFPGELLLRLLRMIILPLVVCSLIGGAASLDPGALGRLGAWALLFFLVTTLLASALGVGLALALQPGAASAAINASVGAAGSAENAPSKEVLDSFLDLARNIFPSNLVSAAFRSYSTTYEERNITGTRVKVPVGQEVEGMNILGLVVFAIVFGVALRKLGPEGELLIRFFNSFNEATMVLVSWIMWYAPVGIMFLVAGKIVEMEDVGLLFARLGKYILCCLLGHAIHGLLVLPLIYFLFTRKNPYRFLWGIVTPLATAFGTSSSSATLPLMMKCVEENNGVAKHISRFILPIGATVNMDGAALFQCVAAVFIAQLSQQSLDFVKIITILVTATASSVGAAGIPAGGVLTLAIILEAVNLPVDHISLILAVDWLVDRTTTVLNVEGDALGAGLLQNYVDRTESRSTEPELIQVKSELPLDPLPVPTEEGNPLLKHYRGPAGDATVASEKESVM
Nature of the experiment: Two electrode voltage clamp, substrate-activated anion current in oocytes expressing A2-S481T/C482T. The class given is cell-based. As for the experimental part:
All chemicals were obtained from Sigma unless otherwise stated. Stage V oocytes were harvested from female Xenopus laevis (frogs) which were obtained from Nasco (Fort Alkinson, USA). Frogs were anaesthetised with 6.5 mM tricaine neutralised with 7.14 mM sodium bicarbonate. After making an incision in the abdomen of the frog, ovarian sacs were removed and stored in OR-2 buffer (82.5 mM NaCl, 2 mM KCl, 1 mM MgCl2, 5 mM hemisodium HEPES, pH 7.5). This surgical procedure follows a protocol (#2016/970) approved by the University of Sydney Animal Ethics Committee under the Australian Code of Practice for the Care and Use of Animals for Scientific Purposes. To isolate oocytes, the ovarian sacs were cut into small sections before being digested by agitation with 2 mg per ml Collagenase A for 1–2 h. Following digestion, defoliculated oocytes were initially rinsed with OR-2, followed by frog Ringer’s solution (96 mM NaCl, 2 mM KCl, 1 mM MgCl2, 1.8 mM CaCl2, 5 mM hemisodium HEPES, pH 7.5). A total of 20 ng of transporter cRNA was injected into oocytes which were stored in frog Ringer’s solution supplemented with 0.1% gentamycin, 50 μg per ml tetracycline, 2.5 mM pyruvate and 0.5 mM theophylline at 16–18 °C.
After 2–4 days of microinjection, current recordings were made using the two electrode voltage clamp technique with a Geneclamp 500 amplifier (Axon Instruments, Foster City, CA) interfaced with a MacLab 2e chart recorder (ADI Instruments, Sydney, Australia) using the chart software, and a Digidata 1322A (Axon Instruments) controlled by an IBM-compatible computer using the pClamp software (version 10, Molecular Devices, Union City, CA). The current–voltage relationships for substrate elicited conductances were obtained by subjecting cells to 200 ms voltage pulses between −100 mV and + 60 mV in 10 mV steps. Current–voltage relationships were calculated by subtracting steady state current measurements in the absence of substrate from corresponding current measurements in the presence of substrate. […]

In another experiment the target is T2, GltPh-R397C (Pyrococcus horikoshii, UniProt O59010, R397C).
T2 construct: hexa-His (N, cleaved yes); made in house; host or cells: Escherichia coli Top10 (pBAD)
Nature of the experiment: biochemical. The class given is binding. Particulars: for Apparent number of Na+ ions coupled to binding (n): GltPh-R397C, global fit of isotherms at 10–100 mM Na+, 25 °C. As for the experimental part:
Fluorescence-based binding assays were performed by titrating purified protein (50 μg per ml) in 20 mM HEPES/Tris, pH 7.4, 200 mM choline chloride, 0.4 mM n-dodecyl^−β-D-maltopyranoside, 200 nM styryl fluorescent dye RH421 (Invitrogen, Inc., Grand Island, NY) with NaCl, L-ser, L-cys or benzylcysteine at 25 °C[51]. The RH421 dye was excited at 532 nm, and the fluorescence was collected at 628 nm using a QuantaMaster (Photon International Technology, Inc., Edison, NJ). Fluorescence emissions were measured after at least 10 min equilibration to ensure a stabilised signal. The data were analysed using GraphPad Prism version 6.0 for Mac (GraphPad Software, La Jolla California USA). Fractional fluorescence changes were normalised to maximal fluorescence changes, then plotted as a function of ligand concentration and fitted to the Hill equation. All the experiments were performed at least in triplicate.
Analysis of ligand binding data. The voltage sensitive amphipathic dye RH421 reports on Na+ binding to purified GltPh protein in detergent3. RH421 was used to follow Na+ binding to GltPh‐R397C protein either alone or in reactions coupled to binding of amino acids. […]
Coupled ions and amino acid binding was probed by titrating amino acids to the GltPh‐R397C protein in the presence of 10 – 100 mM Na+ ions. The obtained isotherms were analyzed to estimate an apparent number of Na+ ions coupled to binding of the amino acids.
Raw data were first normalized by the initial fluorescence of RH421 and plotted as fraction of fluorescence change (Supplementary […]
total amount of dye and detergent in the assay buffer.
To take into account significant amino acid‐independent Na+ binding, the sets of binding isotherms obtained at variable Na+ concentrations were fitted globally to a simplified binding equation: […]
KD,a is the combined dissociation constant for coupled Na+ and ligand binding and n is the apparent number of coupled ions. Fraction of the protein bound to either Na+ ions alone or to the ions and the […]
Fraction of the protein already bound to Na+ ions before ligand addition is: […]
Fractional fluorescence change Y is fitted to an equation: […]
where Y0 and ∆Y are, respectively, baseline and the signal difference between fully bound and apo […]
KD,a and n were fitted globally for each ligand. Y0 and ∆Y were adjusted for each isotherm independently. […]
individual isotherm to a standard Hill equation, plotted the apparent dissociation constants as functions of Na+ concentrations and compared the values to those predicted using the parameters from the global fits (Supplementary Figure 8).

Setting [2] is: A2-S481T/C482T in oocytes, NO3−-containing buffer, current at +60 mV, dash = substrate did not generate currents.

T2 sequence (O59010 whole entry R397C): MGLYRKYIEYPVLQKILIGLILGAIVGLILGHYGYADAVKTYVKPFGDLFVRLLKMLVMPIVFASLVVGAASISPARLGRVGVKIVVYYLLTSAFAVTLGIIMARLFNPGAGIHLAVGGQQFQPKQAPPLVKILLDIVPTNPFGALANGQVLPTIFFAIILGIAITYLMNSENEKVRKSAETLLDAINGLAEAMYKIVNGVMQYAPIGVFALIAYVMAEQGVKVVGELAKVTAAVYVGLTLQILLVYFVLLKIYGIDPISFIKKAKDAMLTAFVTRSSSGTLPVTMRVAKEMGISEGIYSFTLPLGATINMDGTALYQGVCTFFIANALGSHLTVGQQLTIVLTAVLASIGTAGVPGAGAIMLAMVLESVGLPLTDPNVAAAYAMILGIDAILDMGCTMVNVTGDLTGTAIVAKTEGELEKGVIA

As for `N[C@@H](CO)C(=O)O` [L-serine], the 50% effective concentration (EC50) in experiment [1] (setting [2]) stood at 61 ± 7 µM. Further, at GltPh-R397C, the Kd was found to be 9 ± 1 µM and the “Apparent number of Na+ ions coupled to binding (n)” value (“Apparent number of Na+ ions coupled” for short) worked out at 1.7 ± 0.04.
For the compound `N[C@@H](CCC(=O)Nc1ccc([N+](=O)[O-])cc1)C(=O)O` [GPNA, glutamyl-p-nitroanilide], the “GPNA % inhibition of L-serine activated current” value in experiment [1] (A2-S481T/C482T, GPNA co-applied with EC50 of L-serine, 1 mM GPNA (Table 1 footnote)) was 20 ± 3%.
For `NC(=O)CC[C@H](N)C(=O)O` [L-glutamine], the “EC50 of substrate-activated current” value in experiment [1] (setting [2]) is given as “did not generate any currents”. For the same compound, on GltPh-R397C, the affinity, expressed as Kd, was 1800 ± 400 µM and the “Apparent number of Na+ ions coupled” value is listed as 1.1 ± 0.04.
In the case of `N[C@@H](CS)C(=O)O` [L-cysteine], on GltPh-R397C, the affinity, expressed as Kd, was 31 ± 3 µM and the “Apparent number of Na+ ions coupled” value is listed as 1.5 ± 0.04.
